Source: ChEMBL document CHEMBL5465560, “Selectivity Literature for EUbOPEN Chemogenomic Library” (2024)

How the values were obtained:
[1] = target: Dual specificity mitogen-activated protein kinase kinase 1 (Homo sapiens, UniProt Q02750); test: Selectivity interaction (ProQinase) EUB0000171b MAP2K1
[2] = target: Bromodomain and WD repeat-containing protein 1 (Homo sapiens) (UniProt Q9NSI6); test: Selectivity interaction (Human bromodomain panel (DSF assay)) EUB0000233b BRWD1
[3] = target: Hepatocyte growth factor receptor (Homo sapiens, UniProt P08581); test: Selectivity interaction (Kinase panel (33PanQinase(R) Activity Assay)) EUB0000877a MET
[4] = target: Histone-lysine N-methyltransferase NSD3 (Homo sapiens, UniProt Q9BZ95); test: Selectivity interaction (Binding affinity assay (SPR measurement)) EUB0000270b NSD3
[5] = target: Calcium/calmodulin-dependent protein kinase type 1D (Homo sapiens) (UniProt Q8IU85); test: Selectivity interaction (ActivX KiNativ screen (kinase selectivity in THP-1 cell lysates)) EUB0000639a CAMK1D; format: subcellular; conditions: lysate
Sequence of Calcium/calmodulin-dependent protein kinase type 1D (Homo sapiens) (Q8IU85 whole entry, looked up): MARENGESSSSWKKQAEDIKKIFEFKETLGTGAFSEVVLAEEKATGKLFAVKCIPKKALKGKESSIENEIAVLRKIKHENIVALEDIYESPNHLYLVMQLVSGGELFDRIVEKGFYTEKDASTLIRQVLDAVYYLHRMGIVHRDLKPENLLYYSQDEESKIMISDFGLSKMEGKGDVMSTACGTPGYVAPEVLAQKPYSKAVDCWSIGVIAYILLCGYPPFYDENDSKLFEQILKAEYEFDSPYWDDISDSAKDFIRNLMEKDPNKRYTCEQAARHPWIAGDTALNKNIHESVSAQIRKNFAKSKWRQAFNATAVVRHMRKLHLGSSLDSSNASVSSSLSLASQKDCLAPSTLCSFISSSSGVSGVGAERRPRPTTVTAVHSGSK

[6] = target: MAP/microtubule affinity-regulating kinase 3 (Homo sapiens) (UniProt P27448); test: Selectivity interaction (ActivX KiNativ screen (kinase selectivity in THP-1 cell lysates)) EUB0000639a MARK3; format: subcellular; conditions: lysate, at 0.01 µM
Sequence of MAP/microtubule affinity-regulating kinase 3 (Homo sapiens) (P27448 whole entry, looked up): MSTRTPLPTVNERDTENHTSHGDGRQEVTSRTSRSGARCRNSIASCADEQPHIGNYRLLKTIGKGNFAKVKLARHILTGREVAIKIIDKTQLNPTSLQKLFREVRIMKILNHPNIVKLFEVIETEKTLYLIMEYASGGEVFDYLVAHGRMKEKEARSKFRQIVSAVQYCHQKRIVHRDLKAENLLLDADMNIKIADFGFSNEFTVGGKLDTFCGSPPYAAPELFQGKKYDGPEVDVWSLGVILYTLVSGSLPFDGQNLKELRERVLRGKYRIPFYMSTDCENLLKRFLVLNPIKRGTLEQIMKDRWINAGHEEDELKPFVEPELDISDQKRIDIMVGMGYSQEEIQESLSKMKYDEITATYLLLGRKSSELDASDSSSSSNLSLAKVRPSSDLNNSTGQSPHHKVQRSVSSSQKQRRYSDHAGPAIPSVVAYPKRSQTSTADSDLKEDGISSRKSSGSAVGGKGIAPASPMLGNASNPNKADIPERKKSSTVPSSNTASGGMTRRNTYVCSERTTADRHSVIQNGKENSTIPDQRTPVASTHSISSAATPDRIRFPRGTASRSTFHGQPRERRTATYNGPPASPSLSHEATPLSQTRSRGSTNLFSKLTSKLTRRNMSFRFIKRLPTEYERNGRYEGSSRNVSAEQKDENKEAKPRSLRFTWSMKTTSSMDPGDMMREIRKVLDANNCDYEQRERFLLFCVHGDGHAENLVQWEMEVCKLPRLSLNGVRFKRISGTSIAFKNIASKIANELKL

[7] = target: T1, Beta-adrenergic receptor kinase 1 (Homo sapiens) (UniProt P25098); test: Selectivity interaction (Kinase panel (Invitrogen)) EUB0000639a ADRBK1; conditions: at 200 nM
T1 sequence (whole entry): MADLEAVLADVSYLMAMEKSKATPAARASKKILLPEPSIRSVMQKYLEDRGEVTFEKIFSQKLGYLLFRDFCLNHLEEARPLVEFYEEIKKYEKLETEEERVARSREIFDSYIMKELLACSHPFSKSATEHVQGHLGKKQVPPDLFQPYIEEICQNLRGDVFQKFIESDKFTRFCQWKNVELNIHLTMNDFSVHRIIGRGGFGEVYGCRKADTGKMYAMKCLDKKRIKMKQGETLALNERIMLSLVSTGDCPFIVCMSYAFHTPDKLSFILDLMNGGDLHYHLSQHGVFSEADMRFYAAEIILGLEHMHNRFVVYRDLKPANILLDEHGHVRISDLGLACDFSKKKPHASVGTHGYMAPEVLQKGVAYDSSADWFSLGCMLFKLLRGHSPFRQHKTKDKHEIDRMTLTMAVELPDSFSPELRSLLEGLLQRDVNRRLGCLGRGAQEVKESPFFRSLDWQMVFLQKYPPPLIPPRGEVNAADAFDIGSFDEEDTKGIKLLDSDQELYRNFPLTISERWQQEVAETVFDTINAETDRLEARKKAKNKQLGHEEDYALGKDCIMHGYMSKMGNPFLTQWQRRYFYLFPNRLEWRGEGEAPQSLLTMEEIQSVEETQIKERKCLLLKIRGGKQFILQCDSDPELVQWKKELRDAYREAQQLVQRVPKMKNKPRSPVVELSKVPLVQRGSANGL

[8] = target: T2, Serine/threonine-protein kinase TAO1 (Homo sapiens) (UniProt Q7L7X3); test: Selectivity interaction (KinomeScan (DiscoverX)) EUB0000607a TAOK1; conditions: at 10 µM
T2 sequence (whole entry): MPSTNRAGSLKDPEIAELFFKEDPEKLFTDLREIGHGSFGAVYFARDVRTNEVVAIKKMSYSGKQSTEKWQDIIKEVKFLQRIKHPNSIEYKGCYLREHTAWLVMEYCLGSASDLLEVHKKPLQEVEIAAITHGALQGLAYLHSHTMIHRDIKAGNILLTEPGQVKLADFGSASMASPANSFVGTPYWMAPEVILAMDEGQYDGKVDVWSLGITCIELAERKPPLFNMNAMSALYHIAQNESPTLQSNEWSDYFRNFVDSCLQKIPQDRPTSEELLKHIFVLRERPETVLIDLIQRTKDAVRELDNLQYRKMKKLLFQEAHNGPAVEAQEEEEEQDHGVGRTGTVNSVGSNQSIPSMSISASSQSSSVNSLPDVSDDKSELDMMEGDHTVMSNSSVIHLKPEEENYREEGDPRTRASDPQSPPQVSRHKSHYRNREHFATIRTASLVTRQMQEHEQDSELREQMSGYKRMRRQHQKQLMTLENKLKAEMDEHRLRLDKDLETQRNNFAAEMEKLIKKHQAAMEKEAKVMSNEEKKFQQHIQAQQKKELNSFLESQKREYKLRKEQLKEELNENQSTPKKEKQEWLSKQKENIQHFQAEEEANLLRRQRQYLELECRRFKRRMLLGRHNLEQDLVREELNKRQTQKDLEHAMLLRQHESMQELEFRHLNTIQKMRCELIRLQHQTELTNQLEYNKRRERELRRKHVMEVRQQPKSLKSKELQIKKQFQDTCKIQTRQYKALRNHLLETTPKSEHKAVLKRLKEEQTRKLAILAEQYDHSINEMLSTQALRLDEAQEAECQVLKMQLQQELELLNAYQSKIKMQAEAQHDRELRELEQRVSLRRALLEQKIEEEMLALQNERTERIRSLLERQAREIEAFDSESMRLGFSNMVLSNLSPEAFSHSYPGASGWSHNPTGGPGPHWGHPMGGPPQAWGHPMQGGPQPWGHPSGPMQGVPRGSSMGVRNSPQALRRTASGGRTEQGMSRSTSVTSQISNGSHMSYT

[9] = target: T3, Dual specificity mitogen-activated protein kinase kinase 6 (Homo sapiens) (UniProt P52564); test: Selectivity interaction (KinomeScan (DiscoverX)) EUB0000045b MAP2K6
T3 sequence (whole entry): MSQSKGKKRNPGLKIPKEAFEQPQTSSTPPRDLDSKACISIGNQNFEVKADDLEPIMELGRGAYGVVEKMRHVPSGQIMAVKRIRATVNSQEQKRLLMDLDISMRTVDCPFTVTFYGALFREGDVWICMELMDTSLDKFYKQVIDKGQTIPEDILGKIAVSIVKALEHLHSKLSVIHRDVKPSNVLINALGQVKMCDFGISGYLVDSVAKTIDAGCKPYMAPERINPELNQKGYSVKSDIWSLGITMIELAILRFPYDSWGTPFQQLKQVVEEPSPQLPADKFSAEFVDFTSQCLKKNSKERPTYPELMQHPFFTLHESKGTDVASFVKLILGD

[10] = target: Serine/threonine-protein kinase N2 (Homo sapiens, UniProt Q16513); test: Selectivity interaction (Kinase screening (Upstate/Millipore)) EUB0000604a PKN2
Sequence of Serine/threonine-protein kinase N2 (Q16513 whole entry, looked up): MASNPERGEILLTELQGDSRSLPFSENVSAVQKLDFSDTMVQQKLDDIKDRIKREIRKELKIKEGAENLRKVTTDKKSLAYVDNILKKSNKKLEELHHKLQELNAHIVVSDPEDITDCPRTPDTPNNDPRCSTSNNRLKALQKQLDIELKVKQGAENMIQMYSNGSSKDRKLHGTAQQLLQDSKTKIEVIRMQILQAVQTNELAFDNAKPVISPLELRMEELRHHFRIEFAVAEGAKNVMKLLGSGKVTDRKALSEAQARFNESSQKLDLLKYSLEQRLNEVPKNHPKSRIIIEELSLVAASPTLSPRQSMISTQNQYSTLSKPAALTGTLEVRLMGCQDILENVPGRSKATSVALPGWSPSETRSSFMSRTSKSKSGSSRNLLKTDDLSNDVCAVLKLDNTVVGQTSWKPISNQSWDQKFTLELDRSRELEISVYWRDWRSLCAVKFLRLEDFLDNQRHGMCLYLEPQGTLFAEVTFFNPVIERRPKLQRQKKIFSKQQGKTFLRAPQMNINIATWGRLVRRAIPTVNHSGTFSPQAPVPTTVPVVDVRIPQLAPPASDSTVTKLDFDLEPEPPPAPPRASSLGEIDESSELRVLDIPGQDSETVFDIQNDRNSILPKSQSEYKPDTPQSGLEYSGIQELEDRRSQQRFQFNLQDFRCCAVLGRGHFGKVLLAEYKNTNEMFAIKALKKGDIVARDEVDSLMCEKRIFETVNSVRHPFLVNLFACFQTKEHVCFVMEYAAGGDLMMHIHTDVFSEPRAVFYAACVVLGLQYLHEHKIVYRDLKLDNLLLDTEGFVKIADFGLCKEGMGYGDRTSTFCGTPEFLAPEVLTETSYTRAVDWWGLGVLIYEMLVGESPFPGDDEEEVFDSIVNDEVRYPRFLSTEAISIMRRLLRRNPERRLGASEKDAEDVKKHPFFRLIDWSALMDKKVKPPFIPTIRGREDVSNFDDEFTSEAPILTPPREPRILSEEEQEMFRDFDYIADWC

[11] = target: DNA (cytosine-5)-methyltransferase 1 (Homo sapiens) (UniProt P26358); conditions: at 1 µM
Sequence of DNA (cytosine-5)-methyltransferase 1 (Homo sapiens) (P26358 whole entry): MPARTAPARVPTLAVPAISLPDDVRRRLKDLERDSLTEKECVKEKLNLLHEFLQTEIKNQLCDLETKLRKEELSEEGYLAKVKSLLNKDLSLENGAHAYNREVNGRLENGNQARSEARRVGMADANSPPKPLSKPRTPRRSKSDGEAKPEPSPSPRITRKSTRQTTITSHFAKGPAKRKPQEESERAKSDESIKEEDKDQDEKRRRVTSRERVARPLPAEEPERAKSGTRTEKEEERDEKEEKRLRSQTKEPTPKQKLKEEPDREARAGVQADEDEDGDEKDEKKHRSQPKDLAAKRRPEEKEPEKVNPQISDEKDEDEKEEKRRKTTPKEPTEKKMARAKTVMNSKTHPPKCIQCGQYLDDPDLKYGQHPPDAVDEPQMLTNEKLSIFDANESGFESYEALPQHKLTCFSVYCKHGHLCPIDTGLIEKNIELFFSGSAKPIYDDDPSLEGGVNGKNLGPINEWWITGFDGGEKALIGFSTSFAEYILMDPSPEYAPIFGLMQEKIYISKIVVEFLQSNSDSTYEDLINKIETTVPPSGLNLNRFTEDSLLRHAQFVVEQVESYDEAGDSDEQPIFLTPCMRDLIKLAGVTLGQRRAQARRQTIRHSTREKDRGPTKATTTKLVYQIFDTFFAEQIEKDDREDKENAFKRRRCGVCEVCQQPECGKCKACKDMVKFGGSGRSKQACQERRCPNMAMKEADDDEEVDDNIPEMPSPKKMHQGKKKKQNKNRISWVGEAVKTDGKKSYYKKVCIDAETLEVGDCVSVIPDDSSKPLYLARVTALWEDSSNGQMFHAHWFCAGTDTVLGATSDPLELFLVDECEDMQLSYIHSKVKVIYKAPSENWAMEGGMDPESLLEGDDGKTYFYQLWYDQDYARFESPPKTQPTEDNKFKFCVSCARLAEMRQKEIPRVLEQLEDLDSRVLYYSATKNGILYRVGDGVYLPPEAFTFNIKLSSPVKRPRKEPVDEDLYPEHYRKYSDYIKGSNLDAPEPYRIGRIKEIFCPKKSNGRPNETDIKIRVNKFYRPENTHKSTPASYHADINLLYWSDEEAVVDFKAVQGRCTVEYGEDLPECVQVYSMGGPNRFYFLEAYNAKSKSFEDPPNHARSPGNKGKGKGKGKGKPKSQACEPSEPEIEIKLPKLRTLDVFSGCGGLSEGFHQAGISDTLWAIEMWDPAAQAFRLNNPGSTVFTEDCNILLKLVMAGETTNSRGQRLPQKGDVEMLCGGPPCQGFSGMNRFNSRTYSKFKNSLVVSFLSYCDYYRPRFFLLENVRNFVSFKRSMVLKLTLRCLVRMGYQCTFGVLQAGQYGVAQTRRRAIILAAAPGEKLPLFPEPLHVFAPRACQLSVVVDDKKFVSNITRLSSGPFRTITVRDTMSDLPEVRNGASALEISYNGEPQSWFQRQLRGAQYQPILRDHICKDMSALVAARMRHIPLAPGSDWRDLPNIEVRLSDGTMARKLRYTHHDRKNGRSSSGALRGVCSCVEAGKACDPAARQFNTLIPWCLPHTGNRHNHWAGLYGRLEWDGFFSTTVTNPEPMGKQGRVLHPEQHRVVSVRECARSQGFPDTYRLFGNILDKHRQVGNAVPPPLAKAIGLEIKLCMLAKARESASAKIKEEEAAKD

Sequence of Dual specificity mitogen-activated protein kinase kinase 1 (Q02750 whole entry): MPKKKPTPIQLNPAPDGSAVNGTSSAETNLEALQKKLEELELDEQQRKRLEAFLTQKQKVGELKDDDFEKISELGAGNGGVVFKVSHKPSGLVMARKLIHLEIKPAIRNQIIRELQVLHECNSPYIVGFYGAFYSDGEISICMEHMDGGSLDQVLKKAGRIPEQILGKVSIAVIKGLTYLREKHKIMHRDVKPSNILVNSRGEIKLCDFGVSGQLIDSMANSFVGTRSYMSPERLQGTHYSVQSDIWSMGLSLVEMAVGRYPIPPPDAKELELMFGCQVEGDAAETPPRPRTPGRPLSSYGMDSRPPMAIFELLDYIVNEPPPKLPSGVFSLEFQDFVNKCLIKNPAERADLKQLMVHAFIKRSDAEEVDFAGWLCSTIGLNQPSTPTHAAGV

C=CC(=O)Nc1cccc(C(=O)Nc2ccc(Nc3cc(-c4[nH]c(SC)nc4C)ccn3)cc2)c1
% of control ([1]; at 1 µM): 96%
% of control ([1]; at 5 µM): 113%

CN(C)CCCOc1ccc(-c2cc(NCCCn3cccn3)nc(S(C)(=O)=O)n2)cc1
dTM [2]: < 2 K

CCC(=O)N1CC[C@H](Nc2ncnc3c2CN(c2cnc(OC)c(C(F)(F)F)c2)CC3)C1 [LENIOLISIB]
IC50 [3]: > 10 µM

Cc1cc(CN)cc(C)c1-c1ncn(C)c1-c1cncn1C
Kd [4]: 144 µM

CC[C@@H]1[C@H](F)C(=O)N[C@@H]1COc1nccc2cc(C(N)=O)c(OC)cc12 [ZIMLOVISERTIB]
% of inhibition ([5]; at 0.01 µM): 7.8%
% of inhibition ([5]; at 0.04 µM): 5.4%
% of inhibition ([5]; at 0.2 µM): 9.3%
% of inhibition ([5]; at 1 µM): 18.4%
% of inhibition ([5]; at 5 µM): 34.3%
% of inhibition [6]: 2.3%
% of inhibition [7]: 0.284%

CNC(=O)Nc1ccc(-c2nc(N3CC4CCC(C3)O4)c3cnn(C4CCC5(CC4)OCCO5)c3n2)cc1
% of control [8]: 100%

C=CC(=O)Nc1cc(-n2c(=O)ccc3cnc4ccc(-c5ccc(NS(C)(=O)=O)cc5)cc4c32)ccc1C
% of control ([9]; at 1 µM): 100%
% of control ([9]; at 10 µM): 70%

Cc1cnc(Nc2ccc(F)cc2Cl)nc1-c1c[nH]c(C(=O)N[C@H](CO)c2cccc(Cl)c2)c1
% of inhibition [10]: 14%

CNCCN1CCC(c2cc(CN(C)C(=O)c3cccc(Oc4ccccc4)c3)ccn2)CC1
% activity [11]: > 85%
